Test results as given in PMC7031696 (Cell chemical biology, 2019).
Read-outs that look alike come from different tables or passages of the source.

Experiments:
[1] = tested on: asynchronous 3D7-A10 parasite cultures; assay: Standard 72-h exposure asexual blood stage susceptibility assay (IC50^72h); type: cell-based, Plasmodium falciparum; settings: Plasmodium falciparum, 3D7, 72 h, read-out: Overall (72hr assay) Mean IC50 (IC50^72h)
[2] = tested on: 3D7-MR4 trophozoite parasite-infected RBCs; settings: 10 × IC50^72h; ref Allman et al., 2016; cited from earlier work
[3] = tested on: Plasmodium falciparum 3D7-A10 parasites; assay: Stage specificity assay (8-h exposure of synchronized stages, IC50^8h); type: cell-based; settings: for IC50: Plasmodium falciparum
[4] = tested on: 3D7-MR4 trophozoite parasite-infected RBCs; assay: Metabolomic profiling (hydrophilic metabolite changes, UHPLC-MS); type: cell-based, Plasmodium falciparum

Compound: C[C@H]1Cc2c([nH]c3cc(Cl)c(F)cc23)[C@@]2(N1)C(=O)Nc1ccc(Cl)cc12 [KAE609, reference compound]
- IC50 [1]: 0.73 nM
- levels of cAMP [2]: decreased
- levels of the deoxyribonucleotides dAMP and dTMP [2]: increased
- nucleoside di- and tri-phosphate levels (GDP, UDP, GTP, dATP, dGTP/ATP, dUTP) [2]: decreased
- peptide levels (hemoglobin catabolism signature) [2]: decreased peptide levels
- Ratio lowest IC50 8hr/IC50 72hr ([3]; 3D7-A10): 1.5
- overall activity profile (stages on which active) ([3]; 8-h exposures): inactive against rings yet active against early trophozoites and later stages
- IC50 ([3]; 3D7, read-out: Early rings IC50 (IC50^8h)): > 1250 nM
- IC50 ([3]; 3D7, read-out: Early trophozoites Mean IC50 (IC50^8h)): 3.2 nM
- IC50 ([3]; 3D7, read-out: Late rings IC50 (IC50^8h)): > 1250 nM
- IC50 ([3]; 3D7, read-out: Late trophozoites Mean IC50 (IC50^8h)): 1.1 nM
- IC50 ([3]; 3D7, read-out: Schizonts Mean IC50 (IC50^8h)): 1.2 nM
- Log2(fold changes) 3-phosphoglycerate ([4]; metabolite 3-phosphoglycerate, log2 fold change): 0.0100
- Log2(fold changes) 4-Pyridoxic acid ([4]; metabolite 4-Pyridoxic acid, log2 fold change): -0.6000
- Log2(fold changes) 4-aminobutyrate ([4]; metabolite 4-aminobutyrate, log2 fold change): -0.5400
- Log2(fold changes) 4-phosphopantetheine ([4]; metabolite 4-phosphopantetheine, log2 fold change): 0.0000
- Log2(fold changes) 4-phosphopantothenate ([4]; metabolite 4-phosphopantothenate, log2 fold change): -0.1500
- Log2(fold changes) 5-aminopentanoic acid ([4]; metabolite 5-aminopentanoic acid, log2 fold change): 0.0000
- Log2(fold changes) 5-methyl-THF ([4]; metabolite 5-methyl-THF, log2 fold change): 0.0000
- Log2(fold changes) 5-phosphoribosyl-1-pyrophosphate ([4]; metabolite 5-phosphoribosyl-1-pyrophosphate, log2 fold change): -2.9800
- Log2(fold changes) 6-phospho-D-gluconate ([4]; metabolite 6-phospho-D-gluconate, log2 fold change): -0.2800
- Log2(fold change) HVDD ([4]; metabolite HVDD): 0.0000
- Log2(fold change) Hydroxyisocaproic acid ([4]; metabolite Hydroxyisocaproic acid): 0.0000
- Log2(fold change) IDP ([4]; metabolite IDP): 0.0000
- Log2(fold change) IMP ([4]; metabolite IMP): 0.3800
- Log2(fold change) Inositol ([4]; metabolite Inositol): 0.0000
- Log2(fold change) Isopentyl-PP ([4]; metabolite Isopentyl-PP): 0.0000
- Log2(fold change) L-arginino-succinate ([4]; metabolite L-arginino-succinate): 0.0000
- Log2(fold change) LD ([4]; metabolite LD): -1.3200
- Log2(fold change) Myristoyl/tetradecanoyl-CoA ([4]; metabolite Myristoyl/tetradecanoyl-CoA): 0.0000
- Log2(fold change) N-Acetyl-L-alanine ([4]; metabolite N-Acetyl-L-alanine): -1.4200
- Log2(fold change) N-acetyl-L-ornithine ([4]; metabolite N-acetyl-L-ornithine): -1.2700
- Log2(fold change) N-acetyl-glucosamine-1/6-phosphate ([4]; metabolite N-acetyl-glucosamine-1/6-phosphate): -0.2300
- Log2(fold change) N-acetyl-glutamate ([4]; metabolite N-acetyl-glutamate): -0.2700
- Log2(fold change) N-acetyl-glutamine ([4]; metabolite N-acetyl-glutamine): -0.4300
- Log2(fold change) N-carbamoyl-L-aspartate ([4]; metabolite N-carbamoyl-L-aspartate): -4.5700
- Log2(fold change) NAD+ ([4]; metabolite NAD+): -0.4000
- Log2(fold change) NADH ([4]; metabolite NADH): 0.0300
- Log2(fold change) NADP+ ([4]; metabolite NADP+): -0.1200
- Log2(fold change) NADPH ([4]; metabolite NADPH): 0.3500
- Log2(fold change) O-acetyl-L-serine ([4]; metabolite O-acetyl-L-serine): 0.0000
- Log2(fold change) Octoluse 8/1P ([4]; metabolite Octoluse 8/1P): -0.7200
- Log2(fold change) Octoluse Bisphosphate ([4]; metabolite Octoluse Bisphosphate): -1.2000
- Log2(fold change) PD ([4]; metabolite PD): -1.2400
- Log2(fold change) PE ([4]; metabolite PE): -3.4900
- Log2(fold change) PEE ([4]; metabolite PEE): -5.3200
- Log2(fold change) PEEK ([4]; metabolite PEEK): -1.5400
- Log2(fold change) PVNF ([4]; metabolite PVNF): -2.0700
- Log2(fold change) Pyroglutamic acid ([4]; metabolite Pyroglutamic acid): -0.0600
- Log2(fold change) Pyrophosphate ([4]; metabolite Pyrophosphate): -3.3800
- Log2(fold change) Ribose-5-phosphate ([4]; metabolite Ribose-5-phosphate): 0.0000
- Log2(fold change) S-adenosyl-L-homocysteine ([4]; metabolite S-adenosyl-L-homocysteine): -1.6400
- Log2(fold change) S-adenosyl-L-methioninamine ([4]; metabolite S-adenosyl-L-methioninamine): 0.0000
- Log2(fold change) S-adenosyl-L-methionine ([4]; metabolite S-adenosyl-L-methionine): 0.0000
- Log2(fold change) S-methyl-5'-thioadenosine ([4]; metabolite S-methyl-5'-thioadenosine): -0.5300
- Log2(fold change) SD ([4]; metabolite SD): -3.7000
- Log2(fold change) SDL ([4]; metabolite SDL): 0.0000
- Log2(fold change) SID ([4]; metabolite SID): 0.0000
- Log2(fold change) Sedoheptulose bisphosphate ([4]; metabolite Sedoheptulose bisphosphate): -1.3400
- Log2(fold change) Thiamine pyrophosphate ([4]; metabolite Thiamine pyrophosphate): 0.0000
- Log2(fold changes) UDP-D-glucose ([4]; metabolite UDP-D-glucose, log2 fold change): -0.2000
- Log2(fold changes) UDP-D-glucuronate ([4]; metabolite UDP-D-glucuronate, log2 fold change): -0.3600
- Log2(fold changes) UDP-N-acetyl-glucosamine ([4]; metabolite UDP-N-acetyl-glucosamine, log2 fold change): 0.0300
- Log2(fold changes) UDP ([4]; metabolite UDP, log2 fold change): -0.9600
- Log2(fold changes) UMP ([4]; metabolite UMP, log2 fold change): -0.3800
- Log2(fold changes) UTP ([4]; metabolite UTP, log2 fold change): -2.0500
- Log2(fold change) hydroxyphenylpyruvate ([4]; metabolite hydroxyphenylpyruvate): 0.0000
- Log2(fold change) hydroxyproline/Aminolevulinate ([4]; metabolite hydroxyproline/Aminolevulinate): 0.0000
- Log2(fold change) hypoxanthine ([4]; metabolite hypoxanthine): 0.2700
- Log2(fold change) indole ([4]; metabolite indole): 0.1700
- Log2(fold change) inosine ([4]; metabolite inosine): 0.1600
- Log2(fold change) isoleucine ([4]; metabolite isoleucine): 0.0000
- Log2(fold change) lactate ([4]; metabolite lactate): -1.3100
- Log2(fold change) leucine ([4]; metabolite leucine): 0.0000
- Log2(fold change) lysine ([4]; metabolite lysine): 0.0000
- Log2(fold change) malate ([4]; metabolite malate): -0.0600
- Log2(fold change) maleic acid ([4]; metabolite maleic acid): 0.0000
- Log2(fold change) methionine ([4]; metabolite methionine): 0.0000
- Log2(fold change) myo-inositol ([4]; metabolite myo-inositol): -3.2700
- Log2(fold change) nicotinamide mononucleotide ([4]; metabolite nicotinamide mononucleotide): 0.0000
- Log2(fold change) nicotinate ([4]; metabolite nicotinate): 0.7800
- Log2(fold change) ornithine ([4]; metabolite ornithine): -0.1500
- Log2(fold change) orotate ([4]; metabolite orotate): 0.9100
- Log2(fold change) orotidine-5'-phosphate ([4]; metabolite orotidine-5'-phosphate): 0.0000
- Log2(fold change) oxaloacetate ([4]; metabolite oxaloacetate): 0.0000
- Log2(fold change) p-aminobenzoate ([4]; metabolite p-aminobenzoate): 0.0000
- Log2(fold change) p-hydroxybenzoate ([4]; metabolite p-hydroxybenzoate): 0.5800
- Log2(fold change) pantothenate ([4]; metabolite pantothenate): 0.0000
- Log2(fold change) phenylalanine ([4]; metabolite phenylalanine): 0.0000
- Log2(fold change) phenylpyruvate ([4]; metabolite phenylpyruvate): -0.7100
- Log2(fold change) phosphoenolpyruvate ([4]; metabolite phosphoenolpyruvate): 0.4500
- Log2(fold change) prephenate ([4]; metabolite prephenate): 0.0000
- Log2(fold change) proline ([4]; metabolite proline): 0.0000
- Log2(fold change) pyridoxine ([4]; metabolite pyridoxine): 0.0000
- Log2(fold change) pyruvate ([4]; metabolite pyruvate): -1.3400
- Log2(fold change) riboflavin ([4]; metabolite riboflavin): 0.0000
- Log2(fold change) ribose ([4]; metabolite ribose): 0.0000
- Log2(fold change) ribose-phosphate ([4]; metabolite ribose-phosphate): -0.5600
- Log2(fold change) ribulose-5-phosphate ([4]; metabolite ribulose-5-phosphate): 0.0000
- Log2(fold change) serine ([4]; metabolite serine): 0.0000
- Log2(fold change) sn-glycerol-3-phosphate ([4]; metabolite sn-glycerol-3-phosphate): 0.6100
- Log2(fold change) succinate/Methylmalonic acid ([4]; metabolite succinate/Methylmalonic acid): 0.1400
- Log2(fold change) succinyl-CoA/methylmalonyl-CoA ([4]; metabolite succinyl-CoA/methylmalonyl-CoA): 0.0000
- Log2(fold change) taurine ([4]; metabolite taurine): 0.0000
- Log2(fold change) thiamine ([4]; metabolite thiamine): 0.0000
- Log2(fold change) threonine/homoserine ([4]; metabolite threonine/homoserine): 0.0000
- Log2(fold change) thymidine ([4]; metabolite thymidine): 0.7900
- Log2(fold changes) thymine ([4]; metabolite thymine, log2 fold change): -0.5500
- Log2(fold changes) trehalose-6-Phosphate ([4]; metabolite trehalose-6-Phosphate, log2 fold change): 0.0000
- Log2(fold changes) tryptophan ([4]; metabolite tryptophan, log2 fold change): 0.0000
- Log2(fold changes) tyrosine ([4]; metabolite tyrosine, log2 fold change): 0.0000
- Log2(fold changes) uridine ([4]; metabolite uridine, log2 fold change): -0.4400
